Measured values from patent US8188085B2, “Antifungal agents” (Merck Sharp & Dohme Corp., priority 2008, dated 2012).

The compounds below were run against glucan synthase (GS) prepared from Candida albicans MY1055 (Candida albicans, UniProt O13428) (assay: Glucan synthase inhibition (polymerization assay, 96-well)). Conditions: GS from C. albicans MY1055; 60 min incubation at 22° C.; read-out: Candida Albicans GS IC50 (converted).
Format: biochemical
In short: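 Partially purified glucan synthase from C. albicans MY1055 membranes incorporated 0.5 mM ³H-UDPG with 25 μM GTP-γ-S, HEPES pH 7.5, over 60 min at 22 °C. TCA-precipitated glucan was counted by scintillation. IC50 (ng/mL) came from sigmoidal fits of duplicate 3-fold dilution series.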

Sequence of glucan synthase (GS) prepared from Candida albicans MY1055 (O13428 1-1897): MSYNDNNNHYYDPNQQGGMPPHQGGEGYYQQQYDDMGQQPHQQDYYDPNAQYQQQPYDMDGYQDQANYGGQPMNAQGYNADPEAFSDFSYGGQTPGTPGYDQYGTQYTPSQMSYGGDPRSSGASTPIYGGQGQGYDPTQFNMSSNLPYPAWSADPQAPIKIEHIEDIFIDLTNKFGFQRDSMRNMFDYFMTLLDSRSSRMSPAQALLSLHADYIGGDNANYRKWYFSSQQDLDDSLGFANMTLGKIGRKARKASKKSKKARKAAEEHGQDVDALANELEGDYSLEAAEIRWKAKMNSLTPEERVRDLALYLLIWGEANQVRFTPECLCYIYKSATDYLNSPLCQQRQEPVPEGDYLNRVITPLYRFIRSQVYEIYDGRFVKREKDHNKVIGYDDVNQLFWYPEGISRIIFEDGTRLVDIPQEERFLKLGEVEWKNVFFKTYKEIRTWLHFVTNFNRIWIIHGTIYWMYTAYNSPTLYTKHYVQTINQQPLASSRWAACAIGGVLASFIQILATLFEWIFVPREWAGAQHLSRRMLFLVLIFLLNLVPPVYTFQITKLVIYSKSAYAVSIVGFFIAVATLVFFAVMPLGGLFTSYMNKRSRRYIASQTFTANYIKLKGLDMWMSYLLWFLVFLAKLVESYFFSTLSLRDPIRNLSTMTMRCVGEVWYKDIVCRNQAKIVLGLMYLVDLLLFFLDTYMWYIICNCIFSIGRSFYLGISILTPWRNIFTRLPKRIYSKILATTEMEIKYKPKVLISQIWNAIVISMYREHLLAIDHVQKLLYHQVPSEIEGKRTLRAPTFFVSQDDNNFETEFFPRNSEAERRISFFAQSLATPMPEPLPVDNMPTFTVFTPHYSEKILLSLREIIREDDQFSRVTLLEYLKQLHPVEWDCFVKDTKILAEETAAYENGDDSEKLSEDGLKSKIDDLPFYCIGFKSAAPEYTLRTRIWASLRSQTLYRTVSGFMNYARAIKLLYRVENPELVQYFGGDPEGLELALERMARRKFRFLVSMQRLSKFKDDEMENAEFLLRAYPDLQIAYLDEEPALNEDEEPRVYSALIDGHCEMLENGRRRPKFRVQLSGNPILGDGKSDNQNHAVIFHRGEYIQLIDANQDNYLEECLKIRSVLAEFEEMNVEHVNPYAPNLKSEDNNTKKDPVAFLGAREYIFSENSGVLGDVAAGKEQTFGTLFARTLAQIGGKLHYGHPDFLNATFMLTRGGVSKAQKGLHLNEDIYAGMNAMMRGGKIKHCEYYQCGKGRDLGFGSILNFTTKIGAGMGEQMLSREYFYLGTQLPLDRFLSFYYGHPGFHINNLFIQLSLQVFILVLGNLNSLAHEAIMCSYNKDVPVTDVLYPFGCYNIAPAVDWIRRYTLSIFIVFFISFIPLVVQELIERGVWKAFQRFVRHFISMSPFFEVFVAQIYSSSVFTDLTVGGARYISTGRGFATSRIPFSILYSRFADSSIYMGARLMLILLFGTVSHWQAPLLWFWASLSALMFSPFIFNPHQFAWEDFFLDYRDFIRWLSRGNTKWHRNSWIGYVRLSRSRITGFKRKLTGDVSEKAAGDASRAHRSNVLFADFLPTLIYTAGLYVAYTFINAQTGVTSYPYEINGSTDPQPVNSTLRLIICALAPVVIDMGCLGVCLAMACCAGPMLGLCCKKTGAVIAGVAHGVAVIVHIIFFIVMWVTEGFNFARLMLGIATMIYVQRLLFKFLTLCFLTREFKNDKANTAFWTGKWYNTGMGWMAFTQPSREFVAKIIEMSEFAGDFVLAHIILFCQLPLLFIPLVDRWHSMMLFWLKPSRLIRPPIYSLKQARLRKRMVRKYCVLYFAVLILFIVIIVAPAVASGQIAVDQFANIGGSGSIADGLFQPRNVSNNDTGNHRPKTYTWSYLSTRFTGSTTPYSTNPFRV

SMILES	IC50
CC(C)[C@@H](C)[C@@]1(C)CC[C@]2(C)[C@H]3CC[C@@H]4[C@@]5(COC[C@@]4(C)[C@@H](OC[C@](C)(N)C(C)C)[C@H](n4ncnc4-c4cncs4)C5)C3=CC[C@@]2(C)[C@@H]1C(=O)O [Example 193, (1S,4aR,6aS,7R,8R,10aR,10bR,12aR,14R,15R)-15-[[(2R)-2-amino-2,3-dimethylbutyl]oxy]-8-[(1R)-1,2-dimethylpropyl]-14-[5-(5-thiazolyl)-1H-1,2,4-triazol-1-yl]-1,6,6a,7,8,9,10,10a,10b,11,12,12a-dodecahydro-1,6a,8,10a-tetramethyl-4H-1,4a-propano-2H-phenanthro[1,2-c]pyran-7-carboxylic acid]	4.15 nM
CN[C@@](C)(CO[C@H]1[C@H](n2ncnc2-c2cccs2)C[C@@]23COC[C@]1(C)[C@@H]2CC[C@H]1C3=CC[C@@]2(C)[C@H](C(=O)O)[C@@](C)([C@H](C)C(C)C)CC[C@]12C)C(C)C [Example 163, (1S,4aR,6aS,7R,8R,10aR,10bR,12aR,14R,15R)-15-[[(2R)-2,3-dimethyl-2-(methylamino)butyl]oxy]-8-[(1R)-1,2-dimethylpropyl]-14-[5-(2-thienyl)-1H-1,2,4-triazol-1-yl]-1,6,6a,7,8,9,10,10a,10b,11,12,12a-dodecahydro-1,6a,8,10a-tetramethyl-4H-1,4a-propano-2H-phenanthro[1,2-c]pyran-7-carboxylic acid]	6.8 nM
CNC1(CO[C@H]2[C@H](n3ncnc3Cl)C[C@@]34COC[C@]2(C)[C@@H]3CC[C@H]2C4=CC[C@@]3(C)[C@H](C(=O)O)[C@@](C)([C@H](C)C(C)C)CC[C@]23C)CCOCC1 [Example 14, (1S,4aR,6aS,7R,8R,10aR,10bR,12aR,14R,15R)-14-(5-chloro-1H-1,2,4-triazol-1-yl)-8-[(1R)-1,2-dimethylpropyl]-15-[[tetrahydro-4-(methylamino)-2H-pyran-4-yl]methoxy]-1,6,6a,7,8,9,10,10a,10b,11,12,12a-dodecahydro-1,6a,8,10a-tetramethyl-4H-1,4a-propano-2H-phenanthro[1,2-c]pyran-7-carboxylic acid]	7.13 nM
CN[C@@](C)(CO[C@H]1[C@H](n2ncnc2C(=O)NCCF)C[C@@]23COC[C@]1(C)[C@@H]2CC[C@H]1C3=CC[C@@]2(C)[C@H](C(=O)O)[C@@](C)([C@H](C)C(C)C)CC[C@]12C)C(C)C [Example 77, (1S,4aR,6aS,7R,8R,10aR,10bR,12aR,14R,15R)-15-[[(2R)-2,3-dimethyl-2-(methylamino)butyl]oxy]-8-[(1R)-1,2-dimethylpropyl]-14-[5-[[(2-fluoroethyl)amino]carbonyl]-1H-1,2,4-triazol-1-yl]-1,6,6a,7,8,9,10,10a,10b,11,12,12a-dodecahydro-1,6a,8,10a-tetramethyl-4H-1,4a-propano-2H-phenanthro[1,2-c]pyran-7-carboxylic acid]	8.09 nM
CN[C@@](C)(CO[C@H]1[C@H](n2ncnc2-c2ccccc2)C[C@@]23COC[C@]1(C)[C@@H]2CC[C@H]1C3=CC[C@@]2(C)[C@H](C(=O)O)[C@@](C)([C@H](C)C(C)C)CC[C@]12C)C(C)C [Example 150, (1S,4aR,6aS,7R,8R,10aR,10bR,12aR,14R,15R)-15-[[(2R)-2,3-dimethyl-2-(methylamino)butyl]oxy]-8-[(1R)-1,2-dimethylpropyl]-14-(5-phenyl-1H-1,2,4-triazol-1-yl)-1,6,6a,7,8,9,10,10a,10b,11,12,12a-dodecahydro-1,6a,8,10a-tetramethyl-4H-1,4a-propano-2H-phenanthro[1,2-c]pyran-7-carboxylic acid]	2.74 nM
CC(C)[C@@H](C)[C@@]1(C)CC[C@]2(C)[C@H]3CC[C@@H]4[C@@]5(COC[C@@]4(C)[C@@H](OC[C@](C)(N)C(C)C)[C@H](n4ncnc4-c4ccc6ccccc6c4)C5)C3=CC[C@@]2(C)[C@@H]1C(=O)O [Example 158, (1S,4aR,6aS,7R,8R,10aR,10bR,12aR,14R,15R)-15-[[(2R)-2-amino-2,3-dimethylbutyl]oxy]-8-[(1R)-1,2-dimethylpropyl]-14-[5-(2-naphthalenyl)-1H-1,2,4-triazol-1-yl]-1,6,6a,7,8,9,10,10a,10b,11,12,12a-dodecahydro-1,6a,8,10a-tetramethyl-4H-1,4a-propano-2H-phenanthro[1,2-c]pyran-7-carboxylic acid]	20.9 nM
CC(C)[C@@H](C)[C@@]1(C)CC[C@]2(C)[C@H]3CC[C@@H]4[C@@]5(COC[C@@]4(C)[C@@H](OC[C@](C)(N)C(C)(C)C)[C@H](n4ncnc4-c4ccc(C6=NCCN6)cc4)C5)C3=CC[C@@]2(C)[C@@H]1C(=O)O [Example 268, (1S,4aR,6aS,7R,8R,8R,10aR,10bR,12aR,14R,15R)-15-[[(2R)-2-amino-2,3,3-trimethylbutyl]oxy]-14-[5-[4-(4,5-dihydro-1H-imidazol-2-yl)phenyl]-1H-1,2,4-triazol-1-yl]-8-[(1R)-1,2-dimethylpropyl]-1,6,6a,7,8,9,10,10a,10b,11,12,12a-dodecahydro-1,6a,8,10a-tetramethyl-4H-1,4a-propano-2H-phenanthro[1,2-c]pyran-7-carboxylic acid]	0.376 nM
CCNC(=O)c1ccnn1[C@@H]1C[C@@]23COC[C@](C)([C@@H]2CC[C@H]2C3=CC[C@@]3(C)[C@H](C(=O)O)[C@@](C)([C@H](C)C(C)C)CC[C@]23C)[C@H]1OC[C@](C)(N)C(C)C [Example 298, (1S,4aR,6aS,7R,8R,10aR,10bR,12aR,14R,15R)-15-[[(2R)-2-amino-2,3-dimethylbutyl]oxy]-8-[(1R)-1,2-dimethylpropyl]-14-[5-[(ethylamino)carbonyl]-1H-pyrazol-1-yl]-1,6,6a,7,8,9,10,10a,10b,11,12,12a-dodecahydro-1,6a,8,10a-tetramethyl-4H-1,4a-propano-2H-phenanthro[1,2-c]pyran-7-carboxylic acid]	38.1 nM
CC(C)[C@@H](C)[C@@]1(C)CC[C@]2(C)[C@H]3CC[C@@H]4[C@@]5(COC[C@@]4(C)[C@@H](OC[C@](C)(N)C(C)C)[C@H](n4nccc4[N+](=O)[O-])C5)C3=CC[C@@]2(C)[C@@H]1C(=O)O (single isomer, unassigned) [Example 293B]	4.39 nM
CC(C)[C@@H](C)[C@@]1(C)CC[C@]2(C)[C@H]3CC[C@@H]4[C@@]5(COC[C@@]4(C)[C@@H](OC[C@@]4(C)CCCN4)[C@H](n4ncnc4-c4ccncc4)C5)C3=CC[C@@]2(C)[C@@H]1C(=O)O [Example 307, (1S,4aR,6aS,7R,8R,10aR,10bR,12aR,14R,15R)-8-[(1R)-1,2-dimethylpropyl]-15-[[(2R)-2-methyl-2-pyrrolidinyl]methoxy]-14-[5-(4-pyridinyl)-1H-1,2,4-triazol-1-yl]-1,6,6a,7,8,9,10,10a,10b,11,12,12a-dodecahydro-1,6a,8,10a-tetramethyl-4H-1,4a-propano-2H-phenanthro[1,2-c]pyran-7-carboxylic acid]	5.6 nM
CC(C)[C@@H](C)[C@@]1(C)CC[C@]2(C)[C@H]3CC[C@@H]4[C@@]5(COC[C@@]4(C)[C@@H](OC[C@](C)(N)C(C)C)[C@H](n4ncnc4N)C5)C3=CC[C@@]2(C)[C@@H]1C(=O)O [Example 31, (1S,4aR,6aS,7R,8R,10aR,10bR,12aR,14R,15R)-15-[[(2R)-2-amino-2,3-dimethylbutyl]oxy]-14-(5-amino-1H-1,2,4-triazol-1-yl)-8-[(1R)-1,2-dimethylpropyl]-1,6,6a,7,8,9,10,10a,10b,11,12,12a-dodecahydro-1,6a,8,10a-tetramethyl-4H-1,4a-propano-2H-phenanthro[1,2-c]pyran-7-carboxylic acid]	15.3 nM
CC(C)[C@@H](C)[C@@]1(C)CC[C@]2(C)[C@H]3CC[C@@H]4[C@@]5(COC[C@@]4(C)[C@@H](OCC(C)(C(C)C)N(C)C)[C@H](n4ncnc4Cl)C5)C3=CC(=O)[C@@]2(C)[C@@H]1C(=O)O (stereo partly drawn) [Example 9B, (1S,4aR,6aS,7R,8R,10aR,10bR,12aR,14R,15R)-14-(5-chloro-1H-1,2,4-triazol-1-yl)-15-[2-(dimethylamino)-2,3-dimethylbutoxy]-8-[(1R)-1,2-dimethylpropyl]-1,6,6a,7,8,9,10,10a,10b,11,12,12a-dodecahydro-1,6a,8,10a-tetramethyl-6-oxo-4H-1,4a-propano-2H-phenanthro[1,2-c]pyran-7-carboxylic acid]	36.3 nM
CNC1(CO[C@H]2[C@H](n3cncn3)C[C@@]34COC[C@]2(C)[C@@H]3CC[C@H]2C4=CC[C@@]3(C)[C@H](C(=O)O)[C@@](C)([C@H](C)C(C)C)CC[C@]23C)CCCCC1 [Example 16, (1S,4aR,6aS,7R,8R,10aR,10bR,12aR,14R,15R)-8-[(1R)-1,2-dimethylpropyl]-15-[[1-(methylamino)cyclohexyl]methoxy]-14-(1H-1,2,4-triazol-1-yl)-1,6,6a,7,8,9,10,10a,10b,11,12,12a-dodecahydro-1,6a,8,10a-tetramethyl-4H-1,4a-propano-2H-phenanthro[1,2-c]pyran-7-carboxylic acid]	33.1 nM
CN[C@@](C)(CO[C@H]1[C@H](n2ncnc2C(=O)NC(C)C)C[C@@]23COC[C@]1(C)[C@@H]2CC[C@H]1C3=CC[C@@]2(C)[C@H](C(=O)O)[C@@](C)([C@H](C)C(C)C)CC[C@]12C)C(C)C [Example 38, (1S,4aR,6aS,7R,8R,10aR,10bR,12aR,14R,15R)-15-[[(2R)-2,3-dimethyl-2-(methylamino)butyl]oxy]-8-[(1R)-1,2-dimethylpropyl]-14-[5-[[(1-methylethyl)amino]carbonyl]-1H-1,2,4-triazol-1-yl]-1,6,6a,7,8,9,10,10a,10b,11,12,12a-dodecahydro-1,6a,8,10a-tetramethyl-4H-1,4a-propano-2H-phenanthro[1,2-c]pyran-7-carboxylic acid]	17.6 nM
